In PMC12584665, “In vitro and in vivo efficacy of vancomycin against Elizabethkingia species and the impact of increased vancomycin MICs” (Microbiology Spectrum, 2025):
In brackets after ≈: the same amount, converted by molar mass. Where two headings read alike, the source gives them in different places.

Experiments:
[1] = system: Elizabethkingia anophelis; experiment: Broth microdilution (BMD) MIC; assay type: cell-based
Text: Eighteen E. anophelis clinical isolates from the nationwide surveillance program (Taiwan Surveillance of Antimicrobial Resistance) were well characterized in our previous study ([7]) and were selected for susceptibility testing and minimum bactericidal concentration (MBC) assays. Among them, five isolates with different clonality (underlined strains in Fig. S1) were selected for the time-kill assays and in vivo experiments.
Broth microdilution, disc diffusion, Etest, and agar dilution assays were conducted following CLSI guidelines to determine vancomycin MICs ([8]). […] Criteria for Staphylococcus spp. were not adopted due to the lack of a zone diameter breakpoint. MBCs were determined following CLSI guidelines ([8]).

[2] = system: Elizabethkingia anophelis; experiment: Galleria mellonella (wax moth) infection survival model; assay type: in vivo; conditions: 72 h
Experimental: (§1) In vivo efficacy was assessed by wax moth (Galleria mellonella), murine pneumonia, and murine thigh infection models following the protocols of our previous study ([2]). The Animal Ethics Committee of Taiwan’s National Health Research Institutes approved the murine pneumonia and thigh infection models.
G. mellonella was reared at the National Health Research Institutes of Taiwan. Caterpillars in the final instar larval stage (weight ca. 250 mg) were used. […] A 10 µL aliquot of E. anophelis at the predetermined lethal dose was injected into the hemocoel of each caterpillar via the last left proleg. Antibiotics were administered once into another proleg at the indicated time points; vancomycin (5, 10, or 20 mg/kg, 2 h post-inoculation); other glycopeptides (teicoplanin, 10 mg/kg, 30 min post-inoculation; dalbavancin, 8.75 mg/kg, 2 h post-inoculation; oritavancin, 15 mg/kg, 1 h post-inoculation) ([11][–][13]); or daptomycin (10 mg/kg, 2 h post-inoculation) ([13]). Each treatment group contained 6–8 caterpillars. A control group injected with sterile PBS was included to monitor for trauma-related mortality. Caterpillars were incubated at 37°C, and survival was recorded twice daily for 72 h.

[3] = system: Elizabethkingia anophelis; experiment: Murine pneumonia model; assay type: in vivo, C57BL/6J mice; conditions: 50 mg/kg intraperitoneal twice daily
Experimental: as §1
For the pneumonia model, a bacterial suspension was mixed with 5% mucin from porcine stomach (type 3; Sigma-Aldrich, Saint Louis, USA). Seven-week-old C57BL/6J mice were anesthetized with isoflurane for 10 min. For each strain, the inoculum corresponded to the lowest dose that caused >80% mortality in preliminary testing. This inoculum (10⁶–10⁸ cfu, depending on strain) was delivered intratracheally to induce pneumonia. Two hours thereafter, mice received either high or human-equivalent doses of subcutaneous vancomycin (100 mg/kg or 25 mg/kg, respectively) or intraperitoneal teicoplanin (50 mg/kg) ([17]) twice daily for 3 days. Each group contained eight mice, and survival was monitored for 3 days.

[4] = system: Elizabethkingia anophelis; experiment: Murine neutropenic thigh infection model; assay type: in vivo, C57BL/6J mice; conditions: 50 mg/kg intraperitoneal, 2 h and 14 h after inoculation
Experimental: as §1
For the thigh infection model, seven-week-old C57BL/6J mice were rendered neutropenic by intraperitoneal injections of cyclophosphamide (Cytoxan; Bristol-Myers Squibb, Princeton, NJ, USA) 4 days (150 mg/kg) and 1 day (100 mg/kg) before bacterial inoculation. A 30 µL aliquot containing the E. anophelis (10^7 cfu) was injected into each of the two rear thighs. Vancomycin (25 mg/kg or 100 mg/kg, subcutaneous) or teicoplanin (50 mg/kg, intraperitoneal) was administered 2 h and 14 h after inoculation. Mice were sacrificed 24 h post-inoculation, and homogenized thigh tissue was plated in serial 10-fold dilutions on brain-heart infusion agar to determine bacterial counts. Each mouse, not each thigh, was considered an individual data point.

[5] = Serum drug levels in mice (LC-MS/MS); assay type: in vivo; conditions: single dose 50 mg/kg intraperitoneal teicoplanin vs 25 or 100 mg/kg subcutaneous vancomycin
Experimental: Fifty microliters of aliquots of murine serum was mixed with 100 µL acetonitrile. The mixture was vortexed and then centrifuged at 15,000 × g for 20 min in a Beckman Coulter Microfuge 22R Centrifuge at room temperature. The supernatant was transferred to a clean tube, and then 15 µL of the supernatant was injected onto LC-MS/MS. The chromatographic system consisted of an Agilent 1200 series LC system and an Agilent ZORBAX Eclipse XDB-C8 column (5 µm, 3.0 × 150 mm) interfaced to an MDS Sciex API3000 tandem mass spectrometer. The MS/MS ion transitions monitored were m/z 725/144 for vancomycin. A gradient HPLC method was employed for separation. Mobile phase A consisted of 10 mM ammonium acetate aqueous solution containing 0.1% formic acid and mobile phase B consisted of acetonitrile. The gradient profile was as follows (min/%B): 0.0–0.9/5, 1.0–2.0/50, 2.1–3.7/95, 3.8–5.0/5. The flow rate was set at 1.5 mL/min.

[6] = Elizabethkingia anophelis, E. anophelis clinical isolate 2008N05-106, read-out: MIC, BMD
[7] = Elizabethkingia anophelis, E. anophelis clinical isolate 2008S01-229, read-out: MIC, BMD
[8] = Elizabethkingia anophelis, E. anophelis clinical isolate 2014C06-157, read-out: MIC, BMD
[9] = Elizabethkingia anophelis, E. anophelis clinical isolate 2016N17-576, read-out: MIC, BMD
[10] = Elizabethkingia anophelis, E. anophelis clinical isolate 2018C04-213, read-out: MIC, BMD
[11] = Elizabethkingia anophelis, E. anophelis clinical isolate 2018C04-224, read-out: MIC, BMD
[12] = Elizabethkingia anophelis, E. anophelis clinical isolate 2018C07-210, read-out: MIC, BMD
[13] = Elizabethkingia anophelis, E. anophelis clinical isolate 2018C07-234, read-out: MIC, BMD
[14] = Elizabethkingia anophelis, E. anophelis clinical isolate 2018C08-127, read-out: MIC, BMD
[15] = Elizabethkingia anophelis, E. anophelis clinical isolate 2018E03-151, read-out: MIC, BMD
[16] = Elizabethkingia anophelis, E. anophelis clinical isolate 2018E04-135, read-out: MIC, BMD
[17] = Elizabethkingia anophelis, E. anophelis clinical isolate 2018N16-057, read-out: MIC, BMD
[18] = Elizabethkingia anophelis, E. anophelis clinical isolate 2018N17-036, read-out: MIC, BMD
[19] = Elizabethkingia anophelis, E. anophelis clinical isolate 2018N17-073, read-out: MIC, BMD
[20] = Elizabethkingia anophelis, E. anophelis clinical isolate 2018N17-153, read-out: MIC, BMD
[21] = Elizabethkingia anophelis, E. anophelis clinical isolate 2018N21-226, read-out: MIC, BMD
[22] = Elizabethkingia anophelis, E. anophelis clinical isolate 2018S09-023, read-out: MIC, BMD
[23] = Elizabethkingia anophelis, E. anophelis clinical isolate 2018S11-172, read-out: MIC, BMD
[24] = E. anophelis used in the G. mellonella assays of Fig. S4, isolate and method not given

## CN[C@H](CC(C)C)C(=O)N[C@H]1C(=O)N[C@@H](CC(N)=O)C(=O)N[C@H]2C(=O)N[C@H]3C(=O)N[C@H](C(=O)N[C@H](C(=O)O)c4cc(O)cc(O)c4-c4cc3ccc4O)[C@H](O[C@H]3C[C@](C)(N)[C@@H](O)[C@H](C)O3)c3ccc(c(Cl)c3)Oc3cc2cc(c3O[C@@H]2O[C@H](CO)[C@@H](O)[C@H](O)[C@H]2O[C@H]2C[C@](C)(NCc3ccc(-c4ccc(Cl)cc4)cc3)[C@@H](O)[C@H](C)O2)Oc2ccc(cc2Cl)[C@H]1O [oritavancin]
[1]; read-out: MICs, E. anophelis used in the G. mellonella assays of Fig. S4, isolate and method not given
  MIC: 64 µg/mL (≈ 35.7 µM)
[2]; 15 mg/kg once, 1 h post-inoculation
  survival of infected wax moths: no survival benefit

## C[C@H]1COc2c(N3CCN(C)CC3)c(F)cc3c(=O)c(C(=O)O)cn1c23 [Levofloxacin]
[1]; [6]
  MIC: > 8 µg/mL
[1]; [7]
  MIC: ≤ 1 µg/mL
[1]; [8]
  MIC: > 8 µg/mL
[1]; [9]
  MIC: > 8 µg/mL
[1]; [10]
  MIC: > 8 µg/mL
[1]; [11]
  MIC: > 8 µg/mL
[1]; [12]
  MIC: > 8 µg/mL
[1]; [13]
  MIC: > 8 µg/mL
[1]; [14]
  MIC: 2 µg/mL (≈ 5.53 µM)
[1]; [15]
  MIC: 2 µg/mL (≈ 5.53 µM)
[1]; [16]
  MIC: ≤ 1 µg/mL
[1]; [17]
  MIC: ≤ 1 µg/mL
[1]; [18]
  MIC: > 8 µg/mL
[1]; [19]
  MIC: > 8 µg/mL
[1]; [20]
  MIC: > 8 µg/mL
[1]; [21]
  MIC: ≤ 1 µg/mL
[1]; [22]
  MIC: ≤ 1 µg/mL
[1]; [23]
  MIC: 2 µg/mL (≈ 5.53 µM)

## CN(C)c1ccc(O)c2c1C[C@H]1C[C@H]3[C@H](N(C)C)C(O)=C(C(N)=O)C(=O)[C@@]3(O)C(O)=C1C2=O [Minocycline]
[1]; [6]
  MIC: ≤ 2 µg/mL
[1]; [7]
  MIC: ≤ 2 µg/mL
[1]; [8]
  MIC: ≤ 2 µg/mL
[1]; [9]
  MIC: ≤ 2 µg/mL
[1]; [10]
  MIC: ≤ 2 µg/mL
[1]; [11]
  MIC: ≤ 2 µg/mL
[1]; [12]
  MIC: ≤ 2 µg/mL
[1]; [13]
  MIC: ≤ 2 µg/mL
[1]; [14]
  MIC: ≤ 2 µg/mL
[1]; [15]
  MIC: ≤ 2 µg/mL
[1]; [16]
  MIC: ≤ 2 µg/mL
[1]; [17]
  MIC: ≤ 2 µg/mL
[1]; [18]
  MIC: ≤ 2 µg/mL
[1]; [19]
  MIC: ≤ 2 µg/mL
[1]; [20]
  MIC: ≤ 2 µg/mL
[1]; [21]
  MIC: ≤ 2 µg/mL
[1]; [22]
  MIC: ≤ 2 µg/mL
[1]; [23]
  MIC: ≤ 2 µg/mL

## CCCCCCCCCC(=O)N[C@@H](Cc1c[nH]c2ccccc12)C(=O)N[C@H](CC(N)=O)C(=O)N[C@@H](CC(=O)O)C(=O)N[C@@H]1C(=O)NCC(=O)N[C@@H](CCCN)C(=O)N[C@@H](CC(=O)O)C(=O)N[C@H](C)C(=O)N[C@@H](CC(=O)O)C(=O)NCC(=O)N[C@H](CO)C(=O)N[C@@H]([C@H](C)CC(=O)O)C(=O)N[C@@H](CC(=O)c2ccccc2N)C(=O)O[C@@H]1C [daptomycin]
[1]; E. anophelis used in the G. mellonella assays of Fig. S4, isolate and method not given, read-out: MICs
  MIC: 128 µg/mL (≈ 79 µM)
[2]; 10 mg/kg once, 2 h post-inoculation
  survival of infected wax moths: no survival benefit

## CN[C@H]1C(=O)N[C@@H]2Cc3ccc(cc3)Oc3cc4cc(c3O[C@@H]3O[C@H](C(=O)O)[C@@H](O)[C@H](O)[C@H]3NC(=O)CCCCCCCCC(C)C)Oc3ccc(cc3Cl)[C@@H](O)[C@@H]3NC(=O)[C@H](NC(=O)[C@@H]4NC(=O)[C@@H](NC2=O)c2cc(cc(O)c2Cl)Oc2cc1ccc2O)c1ccc(O)c(c1)-c1c(O[C@H]2O[C@H](CO)[C@@H](O)[C@H](O)[C@@H]2O)cc(O)cc1[C@@H](C(=O)NCCCN(C)C)NC3=O [dalbavancin]
[1]; [24]
  MICs: 64 mg/L
[2]; 8.75 mg/kg once, 2 h post-inoculation
  survival of infected wax moths: no survival benefit

## Teicoplanin
[3]
  survival of infected mice: little effect
[4]
  reduction of bacterial loads in thigh: little effect
[1]; E. anophelis clinical isolate 2008N05-106
  MIC, BMD: 128 µg/mL
[1]; E. anophelis clinical isolate 2008S01-229
  MIC, BMD: 128 µg/mL
[1]; E. anophelis clinical isolate 2014C06-157
  MIC, BMD: 128 µg/mL
[1]; E. anophelis clinical isolate 2016N17-576
  MIC, BMD: 128 µg/mL
[1]; E. anophelis clinical isolate 2018C04-213
  MIC, BMD: 128 µg/mL
[1]; E. anophelis clinical isolate 2018C04-224
  MIC, BMD: 128 µg/mL
[1]; E. anophelis clinical isolate 2018C07-210
  MIC, BMD: 256 µg/mL
[1]; E. anophelis clinical isolate 2018C07-234
  MIC, BMD: 256 µg/mL
[1]; E. anophelis clinical isolate 2018C08-127
  MIC, BMD: 128 µg/mL
[1]; E. anophelis clinical isolate 2018E03-151
  MIC, BMD: 128 µg/mL
[1]; E. anophelis clinical isolate 2018E04-135
  MIC, BMD: 64 µg/mL
[1]; E. anophelis clinical isolate 2018N16-057
  MIC, BMD: 128 µg/mL
[1]; E. anophelis clinical isolate 2018N17-036
  MIC, BMD: 128 µg/mL
[1]; E. anophelis clinical isolate 2018N17-073
  MIC, BMD: 128 µg/mL
[1]; E. anophelis clinical isolate 2018N17-153
  MIC, BMD: 128 µg/mL
[1]; E. anophelis clinical isolate 2018N21-226
  MIC, BMD: 64 µg/mL
[1]; E. anophelis clinical isolate 2018S09-023
  MIC, BMD: 64 µg/mL
[1]; E. anophelis clinical isolate 2018S11-172
  MIC, BMD: 64 µg/mL
[1]; [24]
  MICs: 128 mg/L
[2]; 10 mg/kg once, 30 min post-inoculation
  survival of infected wax moths: no survival benefit
[5]
  concentration in murine serum relative to vancomycin: much higher than that of vancomycin
